Columns and labels:
[1] = tested on: liver; conditions: mice, feeding for 5 days with 0.2% cholic acid; cited from earlier work
[2] = tested on: N-Akt tumors (intrahepatic cholangiocarcinoma); experiment: N-Akt intrahepatic cholangiocarcinoma in Apo>hYAP1SA mice, doxycycline-induced hYAP1SA expression in peritumoral hepatocytes; type: in vivo, mouse
Protocol: For intrahepatic delivery of the transposon system (Kang et al., 2011), eight to ten-week-old mice were secured and hydrodynamically injected with 1 μg pCMV/SB11, 4 μg pSBbi-puro-myrAKT-HA, 20 μg of pSBbi-puro-myc-NICD, or 10 μg of cMyc-IRES-NRas via lateral tail vein. For the expression of SB-Cre^ERT2 or inducible Bcl2, 15 μg of pSBbi-puro-Cre^ERT2 or 10 μg of pSBTetON—RH-Flag-Bcl2, respectively, were added to the plasmid mixture. All plasmids were diluted in sterile filtered 0.9% NaCl, and the total volume was adjusted to 10% (in ml) of the total body weight (in grams).
(§1) For conditional deletion of Yap and Taz, tamoxifen was administered for 5 consecutive days, via intraperitoneal injection at a concentration of 1.6 mg/kg in corn oil. In order to activate the expression of TetON-Bcl2 or human YAP expression in Apo>hYAP^1SA mice, 0.2 mg/ml of doxycycline was diluted in filtered sterile drinking water supplemented with 2.5% sucrose and administered ad libido. Doxycycline containing water bottles were protected from light and replaced every other day.
(§2) All quantifications were performed using ImageJ software. Quantification of relative tumor area was done by measuring the tumor area (marked by HA-Akt positive cells in N-Akt model, phospho-ERK expression in Myc-Ras model or S100 expression in melanoma model) and the total area (marked by DAPI). […] We inferred absolute tumor load by multiplying the tumor area by the liver weight of each mouse (absolute tumor load (cm^3)=tumor area (cm)×liver weight (grams).
We next tested whether overexpression of a constitutively active form of YAP (YAP^1SA; this is the YAP variant carrying the mutation Ser127Ala; see description hereinabove), due to mutation of the main Lats1/2 phosphorylation site, is sufficient to recapitulate the tumor regression caused by Lats1/2 deletion. We used transgenic mice that conditionally overexpressed human YAP^1SA in hepatocytes under the control of a doxycycline (Dox) inducible promoter (TetON system) and where the reverse tetracycline transactivator (rtTA) is expressed under the hepatocyte-specific ApoE promoter (hereafter Apo>hYAP^1SA)(Dong et al., 2007). Upon doxycycline feeding, Apo>hYAP^1SA mice induced hepatocyte proliferation and developed liver overgrowth as previously reported (FIG. 10A,B) (Dong et al. 2007). We then induced N-Akt tumors in Apo>hYAP^1SA mice and induced hYAP^1SA expression after 4 weeks of tumor development by adding doxycycline to their drinking water (FIG. 5A). As expected, YAP protein levels increased in doxycycline treated Apo>hYAP^1SA mice but not in non-treated Apo>hYAP^1SA mice or in doxycycline treated C57BL/6 mice (FIG. 10C). […]

[3] = tested on: NRAS-mutant metastatic melanoma cells in the liver; experiment: NRas+/INK4a-/- melanoma liver metastases in Apo>hYAP1SA mice, doxycycline-induced hYAP1SA expression; type: in vivo, mouse; conditions: Apo>YAP1SA mice injected with 10.000 melanoma cells; 2 weeks after YAP activation by doxycycline in drinking water
Protocol: For intrahepatic seeding of tumor cells, mice were hydrodynamically injected with 10.000 mouse melanoma cells (NRas^+/INK4a^−/−) diluted in sterile minimal essential medium (MEM), adjusted to 10% (in ml) of total body weight (in grams). All injected mice were monitored daily and sacrificed in groups at appropriate time points. All experimental and control groups contained 5 to 10 mice.
as §1
as §2, with “(grams). […]” for “(grams).”

[4] = tested on: N-Akt tumors; experiment: Control experiments: effect of tamoxifen or AAV-Cre on N-Akt tumor growth in control mice; type: in vivo, mouse; conditions: control mice with N-Akt tumors without floxed-gene deletion (C57BL/6, or Yap fl/fl;Taz fl/fl without SB-CreERT2)
Protocol: as §1
Adeno-associated virus serotype 8 (AAV8) expressing CRE recombinase under the hepatocyte specific promoter TBG was purchased from UPenn (AAV8.TBG.PI.Cre.rBG, catalog AV-8-PV1091). Mice received 5×10^11 GC of AAV8.TBG.PI.Cre.rBG diluted in 200 ul of 1× phosphate-buffered saline (PBS) by tail vein injection.
as §2

C[C@H](CCC(=O)O)[C@H]1CC[C@H]2[C@@H]3[C@H](O)C[C@@H]4C[C@H](O)CC[C@]4(C)[C@H]3C[C@H](O)[C@]12C [cholic acid]
liver size increase [1]: 30%

C[C@H]1c2cccc(O)c2C(=O)C2=C(O)[C@]3(O)C(=O)C(C(N)=O)=C(O)[C@@H](N(C)C)[C@@H]3[C@@H](O)[C@@H]21 [doxycycline]
survival after tumor initiation ([2]; Apo>hYAP1SA mice, two weeks of doxycycline administration): up to 14 weeks | average survival longer than the control mice ([2]; treated Apo>hYAP1SA mice): 4 weeks | mice with only a few small tumor remnants ([2]; treated Apo>hYAP1SA mice, after 2 weeks of doxycycline): 5/10 | treated mice still alive ([2]; within 6 weeks of tumor initiation, when half of the control mice had died): more than 80% | reduction in tumor load [3]: 98%

CC/C(=C(\c1ccccc1)c1ccc(OCCN(C)C)cc1)c1ccccc1 [tamoxifen]
effect on tumor development, growth or total tumor volume [4]: not affected

From patent publication US20210379088A1, “CANCER REGRESSION BY INDUCING A REGENERATION-LIKE RESPONSE” (VIB VZW, priority 2018, published 2021)
